Test results as given in US20260325533A1, “CDK INHIBITOR COMPOUNDS” (ALEKSIA THERAPEUTICS, INC., priority 2023, published 2026).
Where two headings read alike, the source gives them in different places.

Legend:
Format in all cases: biochemical
CDK6/CCND1 = CDK6/CCND1 (Homo sapiens, UniProt Q00534); assay: CDK6 homogeneous time-resolved fluorescence (HTRF) kinase assay; conditions: CDK6/CCND
Procedure: (§1) A CDK homogeneous time-resolved fluorescence (HTRF) assay was used to assess the potency of the compounds described herein.
(§2) To an untreated 384-well microtiter plate (ProxiPlate) was added 100 nL 100×test compound in DMSO and 5 μL 2×CDK enzyme in assay buffer (50 mM HEPES, 1 mM EGTA, 10 mM MgCl2, 0.01% Tween 20, 2 mM DTT). The plate was centrifuged at 800 RPM for 1 min then incubated for 20 min at 23 °C. 2.5 μL per well of 4×ATP and 2.5 μL 4×ULight™-eIF4E-binding protein 1 (Thr37/46) Peptide substrate were added to all wells. After addition, the plates were centrifuged at 800 RPM for 1 min. The plates were incubated at 23 °C for 60 min. 5 μL per well 4×EDTA solution were added to each well to stop the reaction. 5 μL 4×LANCE Ultra Europium-anti-phospho-eIF4E-binding protein 1 (Thr37/46) antibody were added to each well and the plate was centrifuged for 1 min at 800 RPM. The plate was incubated for 60 min at 23 °C. Fluorescence was read at 340 nm excitation and 665 nm emission on an EnVision 2105 fluorescence reader. The final concentrations of reagents in the activity assay were 1 nM CDK6/CCND1, 1 mM ATP, 50 nM ULight™-eIF4E-binding protein 1 (Thr37/46) Peptide substrate, 1% DMSO, 10 mM EDTA, and 2 nM LANCE Ultra Europium-anti-phospho-eIF4E-binding protein 1 (Thr37/46).
(§3) Dose-response titrations were conducted by using an 11-point, half-logarithmic serial dilution scheme typically starting at 10 μM. Signals were reported as fluorescence units at 665 nm or the ratio of fluorescence units at 665 nm/fluorescence units at 615 nm. Signals are referred to below as “Lance signals”.
(§4) Using this assay, the IC50 values of example compounds were determined. Table 3 illustrates the IC50 for various Example compounds of Formula IA. Table 4 illustrates the IC50 for various other Example compounds of Formula I. ND=not determined.

CDK1/CCNB1 = CDK1/CCNB1 (Homo sapiens, UniProt P06493); assay: CDK1 homogeneous time-resolved fluorescence (HTRF) kinase assay; conditions: CDK1/CCNB
CDK1/CCNB1, sequence (P06493 whole entry): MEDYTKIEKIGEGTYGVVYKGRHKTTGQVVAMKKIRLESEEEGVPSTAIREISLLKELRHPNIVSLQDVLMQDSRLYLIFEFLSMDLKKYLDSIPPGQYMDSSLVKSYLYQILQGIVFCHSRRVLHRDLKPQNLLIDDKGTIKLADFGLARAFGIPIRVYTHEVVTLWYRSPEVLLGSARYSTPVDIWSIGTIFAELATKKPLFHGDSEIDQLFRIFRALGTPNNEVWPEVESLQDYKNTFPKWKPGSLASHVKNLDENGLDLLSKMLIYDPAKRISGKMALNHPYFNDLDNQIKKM
CDK1/CCNB1, sequence (P14635 whole entry partner): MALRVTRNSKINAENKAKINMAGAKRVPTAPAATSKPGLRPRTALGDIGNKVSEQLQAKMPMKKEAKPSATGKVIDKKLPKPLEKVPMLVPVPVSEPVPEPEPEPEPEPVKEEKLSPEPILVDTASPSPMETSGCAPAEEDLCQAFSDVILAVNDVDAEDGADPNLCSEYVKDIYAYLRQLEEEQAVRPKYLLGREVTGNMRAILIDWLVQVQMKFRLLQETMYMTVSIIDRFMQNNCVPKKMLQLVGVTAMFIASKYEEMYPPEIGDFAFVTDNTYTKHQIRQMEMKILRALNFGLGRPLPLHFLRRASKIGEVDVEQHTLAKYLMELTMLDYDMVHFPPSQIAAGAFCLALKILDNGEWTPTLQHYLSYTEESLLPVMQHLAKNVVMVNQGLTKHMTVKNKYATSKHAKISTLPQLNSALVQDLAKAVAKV
Procedure, shortened: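 Kinase activity is measured as Lance signal (665 nm, or 665/615 nm ratio) from europium-labelled anti-phospho-Thr37/46 antibody binding ULight-4E-BP1 peptide. Reactions contain 0.5 nM enzyme, 1 mM ATP, 1% DMSO and run 60 min at 23 °C before EDTA quench.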

CDK2/CCNE1 = CDK2/CCNE1 (Homo sapiens, UniProt P24941); assay: CDK2 homogeneous time-resolved fluorescence (HTRF) kinase assay; conditions: CDK2/CCNE
Procedure, shortened: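 3 nM CDK2/CCNE1 was preincubated with compound for 20 min at 23 °C in HEPES buffer (pH not stated), then reacted 60 min with 1 mM ATP and 50 nM ULight-4E-BP1 (Thr37/46) peptide. After EDTA stop, Eu-anti-phospho-4E-BP1 antibody (2 nM) was added for 60 min and TR-FRET read at 665 nm.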

CDK4/CCND3 = CDK4/CCND3 (Homo sapiens, UniProt P11802); assay: CDK4 homogeneous time-resolved fluorescence (HTRF) kinase assay; conditions: CDK4/CCND
CDK4/CCND3, sequence (P11802 whole entry): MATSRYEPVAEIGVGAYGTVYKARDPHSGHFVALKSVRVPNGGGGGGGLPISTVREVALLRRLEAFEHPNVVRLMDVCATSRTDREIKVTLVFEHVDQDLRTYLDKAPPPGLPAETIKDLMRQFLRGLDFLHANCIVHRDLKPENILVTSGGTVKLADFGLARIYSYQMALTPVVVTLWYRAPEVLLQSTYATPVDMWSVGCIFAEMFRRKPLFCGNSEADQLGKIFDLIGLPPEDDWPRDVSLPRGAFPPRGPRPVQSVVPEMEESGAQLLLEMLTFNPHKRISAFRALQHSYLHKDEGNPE
CDK4/CCND3, sequence (P30281 whole entry partner): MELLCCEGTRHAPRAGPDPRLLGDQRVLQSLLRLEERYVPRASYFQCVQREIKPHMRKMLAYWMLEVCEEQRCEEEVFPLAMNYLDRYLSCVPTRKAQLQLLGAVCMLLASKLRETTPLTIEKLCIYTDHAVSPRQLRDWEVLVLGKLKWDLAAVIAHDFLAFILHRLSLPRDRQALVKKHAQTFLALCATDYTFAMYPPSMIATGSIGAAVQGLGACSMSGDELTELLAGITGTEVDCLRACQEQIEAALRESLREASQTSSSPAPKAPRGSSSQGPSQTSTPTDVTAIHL
Procedure: as §1
as §2, with “were 1.5” for “were 1”, “nM CDK4/CCND3,” for “nM CDK6/CCND1,”
as §3, §4

[1] = x = IC50 25-250 nM, read-out: CDK6/CCND IC50 (25-250 nM)
[2] = x = IC50 >250 nM, read-out: CDK6/CCND IC50 (>250 nM column)

CDK6/CCND1, sequence (Q00534 whole entry): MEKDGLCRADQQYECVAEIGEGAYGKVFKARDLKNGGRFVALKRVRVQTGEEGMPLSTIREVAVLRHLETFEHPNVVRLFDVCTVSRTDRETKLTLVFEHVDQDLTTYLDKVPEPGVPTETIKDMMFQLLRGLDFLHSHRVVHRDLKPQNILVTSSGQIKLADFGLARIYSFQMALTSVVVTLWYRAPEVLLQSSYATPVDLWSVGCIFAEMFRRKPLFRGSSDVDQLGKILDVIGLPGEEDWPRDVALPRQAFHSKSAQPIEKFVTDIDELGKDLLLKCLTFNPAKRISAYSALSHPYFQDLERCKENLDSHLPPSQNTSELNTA
CDK6/CCND1, sequence (P24385 whole entry partner): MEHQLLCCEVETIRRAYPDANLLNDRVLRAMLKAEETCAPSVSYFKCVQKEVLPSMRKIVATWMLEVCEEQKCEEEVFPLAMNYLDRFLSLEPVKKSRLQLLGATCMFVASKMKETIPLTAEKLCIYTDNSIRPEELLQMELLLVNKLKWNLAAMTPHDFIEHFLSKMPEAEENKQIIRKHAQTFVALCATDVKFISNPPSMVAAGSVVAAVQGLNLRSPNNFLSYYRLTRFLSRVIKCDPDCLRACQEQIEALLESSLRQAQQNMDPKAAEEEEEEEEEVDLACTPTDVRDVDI

SMILES: CS(=O)(=O)N1CCC(Nc2cc3c(C(=O)N4CCCC(O)C4)nccc3cn2)CC1 (racemic) [Ex 95, (3-hydroxypiperidin-1-yl)(7-((1-(methylsulfonyl)piperidin-4-yl)amino)-2,6-naphthyridin-1-yl)methanone]
- IC50 (CDK6/CCND1; <25 nM, read-out: CDK6/CCND IC50 <25 nM): < 25 nM
- IC50 (CDK1/CCNB1; >250 nM marked x, read-out: CDK1/CCNB IC50 >250 nM): > 250 nM
- IC50 (CDK2/CCNE1; >250 nM marked x, read-out: CDK2/CCNE IC50 >250 nM): > 250 nM

SMILES: CC(C)S(=N)(=O)c1ccc(Nc2cc3c(C#Cc4ccc5c(c4)NC(=O)C5(C)O)nccc3cn2)cc1 (single isomer, unassigned) [Ex 292, 3-hydroxy-3-methyl-6-((7-((4-(propan-2-ylsulfonimidoyl)phenyl)amino)-2,6-naphthyridin-1-yl)ethynyl)indolin-2-one]
- IC50 (CDK6/CCND1; >250 nM marked x, read-out: CDK6/CCND IC50 >250 nM): > 250 nM

SMILES: Cc1cc(S(C)(=N)=O)ccc1Nc1cc2c(C#Cc3ccc4c(c3)NC(=O)C43CCC3)nccc2cn1 (single isomer, unassigned) [Ex 333, 6'-((7-((2-methyl-4-(S-methylsulfonimidoyl)phenyl)amino)-2,6-naphthyridin-1-yl)ethynyl)spiro[cyclobutane-1,3'-indolin]-2'-one]
- IC50 (CDK4/CCND3; 25-250 nM marked x, read-out: CDK4/CCND IC50 25-250 nM): 25 to 250 nM
- IC50 (CDK1/CCNB1; 25-250 nM marked x, read-out: CDK1/CCNB IC50 25-250 nM): 25 to 250 nM

SMILES: N=S(=O)(c1ccc(Nc2cc3c(C#Cc4ccc5c(c4)NC(=O)C54CC4)nccc3cn2)cc1)C1CCC1 (single isomer, unassigned) [Ex 353, 6'-((7-((4-(cyclobutanesulfonimidoyl)phenyl)amino)-2,6-naphthyridin-1-yl)ethynyl)spiro[cyclopropane-1,3'-indolin]-2'-one]
- IC50 (CDK4/CCND3; x = IC50 25-250 nM, read-out: CDK4/CCND IC50 (25-250 nM)): 25 to 250 nM

SMILES: CS(=N)(=O)c1ccc(Nc2cc3c(C#Cc4ccc5c(c4)NC(=O)C54CC4)nccc3cn2)cc1 (single isomer, unassigned) [Ex 359, 6'-((7-((4-(S-methylsulfonimidoyl)phenyl)amino)-2,6-naphthyridin-1-yl)ethynyl)spiro[cyclopropane-1,3'-indolin]-2'-one]
- IC50 (CDK6/CCND1; [1]): 25 to 250 nM

SMILES: N=S(=O)(c1ccc(Nc2cc3c(C#Cc4ccc5c(c4)NC(=O)C54CCC4)nccc3cn2)cc1)C1CC1 (single isomer, unassigned) [Ex 365, 6'-((7-((4-(cyclopropanesulfonimidoyl)phenyl)amino)-2,6-naphthyridin-1-yl)ethynyl)spiro[cyclobutane-1,3'-indolin]-2'-one]
- IC50 (CDK6/CCND1; [1]): 25 to 250 nM

SMILES: CCS(=N)(=O)c1ccc(Nc2cc3c(C#Cc4ccc5c(c4)NC(=O)C54CCC4)nccc3cn2)cc1 (single isomer, unassigned) [Ex 367, 6'-((7-((4-(ethylsulfonimidoyl)phenyl)amino)-2,6-naphthyridin-1-yl)ethynyl)spiro[cyclobutane-1,3'-indolin]-2'-one]
- IC50 (CDK6/CCND1; [2]): > 250 nM

SMILES: CC1(C)C(=O)Nc2cc(C#Cc3nccc4cnc(Nc5ccc(S(C)(=N)=O)cc5)cc34)ccc21 (single isomer, unassigned) [Ex 452, 3,3-dimethyl-6-((7-((4-(S-methylsulfonimidoyl)phenyl)amino)-2,6-naphthyridin-1-yl)ethynyl)indolin-2-one]
- IC50 (CDK6/CCND1; [1]): 25 to 250 nM

SMILES: CC1(C)C(=O)Nc2cc(C#Cc3nccc4cnc(Nc5ccc(S(=N)(=O)C6CCC6)cc5)cc34)ccc21 (single isomer, unassigned) [Ex 453, 6-((7-((4-(cyclobutanesulfonimidoyl)phenyl)amino)-2,6-naphthyridin-1-yl)ethynyl)-3,3-dimethylindolin-2-one]
- IC50 (CDK6/CCND1; [1]): 25 to 250 nM
- IC50 (CDK1/CCNB1; x = IC50 <25 nM, read-out: CDK1/CCNB IC50 (<25 nM)): < 25 nM
- IC50 (CDK2/CCNE1; x = IC50 <25 nM, read-out: CDK2/CCNE IC50 (<25 nM)): < 25 nM

SMILES: CC1(C)C(=O)Nc2cc(C#Cc3nccc4cnc(Nc5ccc(S(=N)(=O)C6CCC6)cc5)cc34)ccc21 (single isomer, unassigned) [Ex 454, 6-((7-((4-(cyclobutanesulfonimidoyl)phenyl)amino)-2,6-naphthyridin-1-yl)ethynyl)-3,3-dimethylindolin-2-one]
- IC50 (CDK4/CCND3; x = IC50 <25 nM, read-out: CDK4/CCND IC50 (<25 nM)): < 25 nM
- IC50 (CDK1/CCNB1; x = IC50 25-250 nM, read-out: CDK1/CCNB IC50 (25-250 nM)): 25 to 250 nM

SMILES: CC(C)S(=N)(=O)c1ccc(Nc2cc3c(C#Cc4ccc5c(c4)NC(=O)C5(C)C)nccc3cn2)cc1 (single isomer, unassigned) [Ex 456, 3,3-dimethyl-6-((7-((4-(propan-2-ylsulfonimidoyl)phenyl)amino)-2,6-naphthyridin-1-yl)ethynyl)indolin-2-one]
- IC50 (CDK6/CCND1; [2]): > 250 nM

SMILES: CC1(CO)C(=O)Nc2cc(C#Cc3nccc4cnc(Nc5ccc(S(C)(=O)=O)cc5)cc34)ccc21 (single isomer, unassigned) [Example 373, 3-(hydroxymethyl)-3-methyl-6-((7-((4-(methylsulfonyl)phenyl)amino)-2,6-naphthyridin-1-yl)ethynyl)indolin-2-one]
- IC50 (CDK6/CCND1; [2]): > 250 nM

SMILES: CCC1(CC)C(=O)Nc2cc(C#Cc3nccc4cnc(Nc5ccc(S(=N)(=O)C6CCC6)cc5)cc34)ccc21 (single isomer, unassigned) [Example 413, 6-((7-((4-(cyclobutanesulfonimidoyl)phenyl)amino)-2,6-naphthyridin-1-yl)ethynyl)-3,3-diethylindolin-2-one]
- IC50 (CDK4/CCND3; x = IC50 >250 nM, read-out: CDK4/CCND IC50 (>250 nM column)): > 250 nM

SMILES: Cc1c(-c2nccc3cnc(Nc4ccc(S(C)(=N)=O)cc4)cc23)ccc2nn(C)cc12 (single isomer, unassigned) [Example 546, (4-((5-(2,4-dimethyl-2H-indazol-5-yl)-2,6-naphthyridin-3-yl)amino)phenyl)(imino)(methyl)-λ^6-sulfanone]
- IC50 (CDK6/CCND1; [2]): > 250 nM

SMILES: Cc1c(-c2nccc3cnc(Nc4ccc(S(=O)(=O)Nc5cc(F)cc(C(C)(C)O)c5)cc4)cc23)ccc2c1cnn2CC(C)(C)O [Ex 801, N-(3-fluoro-5-(2-hydroxypropan-2-yl)phenyl)-4-((5-(1-(2-hydroxy-2-methylpropyl)-4-methyl-1H-indazol-5-yl)-2,6-naphthyridin-3-yl)amino)benzenesulfonamide]
- IC50 (CDK6/CCND1; >250 nM, 1 mM ATP, read-out: CDK6/CCND IC50, >250 nM): > 250 nM
- IC50 (CDK1/CCNB1; >250 nM, read-out: CDK1/CCNB IC50 >250 nM): > 250 nM
- IC50 (CDK2/CCNE1; <25 nM, read-out: CDK2/CCNE IC50, <25 nM): < 25 nM
